Patent US20030215817A1, “Modulation of gene expression in formation of fatty atherosclerotic lesions” (priority 2003, published 2003)

What was measured:
Assay type in all cases: in vivo, rabbit
[1] = test system: REC1_8 (MspI CCCG 243) mRNA; experiment: TOGA analysis, REC1_8; conditions: REC1_8 CCCG 243; rabbit aorta, 14 days cholesterol
Protocol: (§1) To perform the studies, New Zealand male rabbits weighing 2.0-2.5 kg (Charles River, Calco, Italy) were used. The rabbits were divided into three groups and maintained in identical experimental conditions: (1) control group (n=15); rabbits fed a cholesterol-rich diet; (2) lercanidipine-treated group (n=15); rabbits fed a cholesterol-rich diet and also treated with lercanidipine (3 mg/kg/week); and (3) (R)-lercanidipine-treated group (n=5); rabbits fed a cholesterol-rich diet and also treated with the (R)-enantiomer of lercanidipine (3 mg/kg/week). After a 2 week period of subcutaneous, once a week, pretreatment with 3 mg/kg/week of lercanidipine or (R)-lercanidipine, the rabbits received a daily cholesterol supplement for up to 8 weeks or 2 weeks, respectively. In the following examples, use of the term “lercanidipine” refers to the racemic mixture of lercanidipine hydrochloride, whereas “(R)-lercanidipine” refers to the (R)-enantiomer of lercanidipine hydrochloride.
(§2) The mRNA from the above-described groups was isolated from aorta at different time points, resulting in the following mRNA samples: (1) Day 0 Control=no administered cholesterol, no lercanidipine; (2) Day 0+lercanidipine=no administered cholesterol, treatment with lercanipidine (2 weeks; 3 mg/kg/week); (3) Day 14 Control=cholesterol diet for two weeks, no lercanidipine; (4) Day 14+lercanidipine=cholesterol diet for two weeks, treatment with lercanidipine (four weeks; 3 mg/kg/week); (5) Week 8 Control=cholesterol diet for 8 weeks, no lercanidipine; and (6) Week 8+lercanidipine=cholesterol diet for 8 weeks, treatment with lercanidipine (10 weeks; 3 mg/kg/week). In addition, Day 14+(R)-lercanidipine mRNA samples were prepared from rabbits given a cholesterol diet for two weeks and treated with 3 mg/kg/week (R)-lercanidipine for four weeks.
(§3) Aorta mRNAs were prepared in the following manner. First, the aortas from each experimental group were retrieved and shredded using a polytron homogenizer. The samples were further homogenized using a teflon pestle, after which the cellular debris, nuclei, and blood cells were pelleted by centrifugation. The supernatants were extracted twice with phenol-chloroform-isoamyl alcohol and once with chloroform-isoamyl alcohol. RNA was then precipitated from the aqueous phase with ethanol. The poly A+ mRNA was prepared using standard methods of polyA selection known in the art (Schriber et al., J. Mol. Biol., 142:93-116 (1980)).
(§4) The isolated mRNA was analyzed using a method of simultaneous sequence-specific identification of mRNAs known as TOGA, described in U.S. Pat. No. 5,459,037 and U.S. Pat. No. 5,807,680, hereby incorporated herein by reference. In a preferred embodiment, the TOGA method further comprised an additional PCR step performed using a mixture of four 5′ PCR primers and cDNA templates prepared from a population of antisense cRNAs. A final PCR step that used a mixture of 256 5′ PCR primers produced PCR products that were cDNA fragments that corresponded to the 3′-region of the starting mRNA population. The produced PCR products were then identified by: (a) the initial 5′ sequence comprising the sequence remainder of the recognition site of the restriction endonuclease used to cut and isolate the 3′ region plus the sequence of the preferably four parsing bases immediately 3′ to the remainder of the recognition site, preferably the sequence of the entire fragment; and (b) the length of the fragment. […]

[2] = test system: REC1_6 (MspI ATCC 176) mRNA, ferritin light chain subunit; experiment: TOGA analysis, REC1_6; conditions: REC1_6, ATCC 176; rabbit aorta; 14 days cholesterol + (R)-enantiomer
Protocol: as §1, §2, §3, §4

[3] = test system: REC1_21 (TTCC 165) mRNA, elastin gene; experiment: TOGA analysis, REC1_21; conditions: REC1_21 TTCC 165; rabbit aorta, cholesterol 14 days
Protocol: as §1, §2, §3, §4

REC1_16 (TCGG 195) mRNA = experiment: TOGA analysis, REC1_16; conditions: REC1_16 TCGG 195; rabbit aorta, 14 days cholesterol, (R)-enantiomer
Protocol: as §1, §2, §3, §4

[4] = test system: REC1_3 (MspI ACGG 162) mRNA; experiment: TOGA analysis, REC1_3; conditions: REC1_3, ACGG 162; rabbit aorta; 14 days cholesterol + (R)-enantiomer
Protocol: as §1, §2, §3, §4

[5] = test system: REC1_12 (GCCC 232) mRNA, alpha smooth muscle actin; experiment: TOGA analysis, REC1_12; conditions: REC1_12 GCCC 232; rabbit aorta, 14 days cholesterol
Protocol: as §1, §2, §3, §4

REC1_5 (AGTG 184) mRNA = experiment: TOGA analysis, REC1_5; conditions: REC1_5, AGTG 184; rabbit aorta; 14 days cholesterol + (R)-enantiomer
Protocol: as §1, §2, §3, §4

[6] = test system: REC1_13 (MspI GCCC 216) mRNA; experiment: TOGA analysis, REC1_13; conditions: REC1_13 GCCC 216; rabbit aorta, 14 days cholesterol
Protocol: as §1, §2, §3, §4

[7] = test system: REC1_20 (TTAC 210) mRNA, phosphofructo-1-kinase C isozyme; experiment: TOGA analysis, REC1_20; conditions: REC1_20 TTAC 210; rabbit aorta, cholesterol 14 days
Protocol: as §1, §2, §3, §4

REC1_17 (TCGT 199) mRNA = experiment: TOGA analysis, REC1_17; conditions: REC1_17 TCGT 199; rabbit aorta, 14 days cholesterol, (R)-enantiomer
Protocol: as §1, §2, §3, §4

REC1_19 (TGTT 393) mRNA = experiment: TOGA analysis, REC1_19; conditions: REC1_19 TGTT 393; rabbit aorta, cholesterol 14 days
Protocol: as §1, §2, §3, §4

[8] = test system: REC1_36 (digital address TTAG 155) mRNA; experiment: TOGA analysis, REC1_36; conditions: REC1_36 TTAG 155; rabbit aorta, cholesterol 14 days
Protocol: as §1, §2, §3
The isolated mRNA was analyzed using a method of simultaneous sequence-specific identification of mRNAs known as TOGA, described in U.S. Pat. No. 5,459,037 and U.S. Pat. No. 5,807,680, hereby incorporated herein by reference. In a preferred embodiment, the TOGA method further comprised an additional PCR step performed using a mixture of four 5′ PCR primers and cDNA templates prepared from a population of antisense cRNAs. A final PCR step that used a mixture of 256 5′ PCR primers produced PCR products that were cDNA fragments that corresponded to the 3′-region of the starting mRNA population. The produced PCR products were then identified by: (a) the initial 5′ sequence comprising the sequence remainder of the recognition site of the restriction endonuclease used to cut and isolate the 3′ region plus the sequence of the preferably four parsing bases immediately 3′ to the remainder of the recognition site, preferably the sequence of the entire fragment; and (b) the length of the fragment. These two parameters, sequence and fragment length, were used to compare the obtained PCR products to a database of known polynucleotide sequences. Since the length of the obtained PCR products includes known vector sequences at the 5′ and 3′ ends of the insert, the sequence of the insert provided in the sequence listing is shorter than the fragment length that forms part of the digital address.
The method yields Digital Sequence Tags (DSTs), that is, polynucleotides that are expressed sequence tags of the 3′ end of mRNAs. […]

## COC(=O)C1=C(C)NC(C)=C(C(=O)OC(C)(C)CN(C)CCC(c2ccccc2)c2ccccc2)[C@@H]1c1cccc([N+](=O)[O-])c1 [Lercanidipine (R)]
[1]
  level of gene expression, 14 Day hypercholesterol + Lercanidipine (R): 539
[2]
  level of gene expression (TOGA), 14 Day hypercholesterol + Lercanidipine (R): 365
[3]
  level of gene expression, 14 Day hypercholesterol + Lercanidipine (R): 1574
REC1_16 (TCGG 195) mRNA
  level of gene expression (TOGA), 14 Day hypercholesterol + Lercanidipine (R): 1554
[4]
  level of gene expression (TOGA), 14 Day hypercholesterol + Lercanidipine (R): 197
[5]
  level of gene expression, 14 Day hypercholesterol + Lercanidipine (R): 3993
REC1_5 (AGTG 184) mRNA
  level of gene expression (TOGA), 14 Day hypercholesterol + Lercanidipine (R): 643
[6]
  level of gene expression, 14 Day hypercholesterol + Lercanidipine (R): 404
[7]
  level of gene expression, 14 Day hypercholesterol + Lercanidipine (R): 669
REC1_17 (TCGT 199) mRNA
  level of gene expression (TOGA), 14 Day hypercholesterol + Lercanidipine (R): 1117
REC1_19 (TGTT 393) mRNA
  level of gene expression, 14 Day hypercholesterol + Lercanidipine (R): 748
[8]
  level of gene expression, 14 Day hypercholesterol + Lercanidipine (R): 500
